Columns and labels:
[1] = Inhibiting the production of hydrogen sulfide from L-cysteine due to heat-decomposition; conditions: 2.5 g L-cysteine hydrochloride and 5 g saccharide in 50 ml; 80° C. for 15 minutes; 100 minus relative value, control defined as 100
Description: Two and half grams of precisely weighted L-cysteine hydrochloride (special reagent grade) and on a dry solid basis 5 g of a precisely measured saccharide sample; i.e. hydrous crystalline α,α-trehalose (reagent grade, purity 99.0% or more, commercialized by Hayashibara Biochemical Laboratories, Inc., Okayama, Japan), α-maltosyl α,α-trehalose prepared in the following Example 5 (purity 98.1%), or a reagent grade maltotetraose (purity 97.0% or more, commercialized by Hayashibara Biochemical Laboratories, Inc., Okayama, Japan); were placed in a 50-ml volume measuring flask and dissolved in deionized water to give a final volume of 50 ml. As a control, 2.5 g of precisely measured L-cysteine hydrochloride (special reagent grade) was dissolved in deionized water to give a final volume of 50 ml. Five ml of each sample was place into a 20-ml volume vial, sealed with a butyl gum cap, and kept at 80° C. for 15 minutes in an incubator. Hydrogen sulfide contained in 10 ml of the resulting headspace gas was measured by “GASTECH No. 4 LT”, a hydrogen sulfide detector commercialized by GL Science Corporation, under an aspiration time of one minute. The resulting value of the production of hydrogen sulfide of each test sample was compared with the value of control defined as 100 to calculate the relative value of the production of hydrogen sulfide. And then, the relative rate of inhibiting the production of hydrogen sulfide was calculated by 100 minus the relative value.

[2] = Inhibiting the production of hydrogen sulfide from chicken egg due to heat-decomposition; conditions: 10 g egg solution and 5 g saccharide in 50 ml, pH 7.0; 80° C. for 60 minutes; 100 minus relative value, control defined as 100
Description: Ten grams of an egg solution prepared by mixing a commercialized chicken egg with an equal weight of deionized water, and on a dry solid basis 5 g of a precisely measured saccharide sample; i.e. hydrous crystalline α,α-trehalose (food grade, purity 97.0% or more, commercialized by Hayashibara Biochemical Laboratories, Inc., Okayama, Japan), sucrose (a commercialized granulated sugar), a syrup containing saccharide derivatives of α,α-trehalose prepared in the following Example 1, or a syrup containing saccharide derivatives of α,α-trehalose prepared in the following Example 6 (hereinafter, it is called as “hydrogenated syrup containing saccharide derivatives containing α,α-trehalose”); were placed in a 50-ml volume measuring flask, and admixed with 5 ml of 500 mM phosphate buffer (pH 7.0) and deionized water to give a final volume of 50 ml. As a control, 10 g of an egg solution was admixed with deionized water to give a final volume of 50 ml. Five milliliters of each of the samples was placed into a 20-ml volume vial, sealed with a butyl gum cap, and kept at 80° C. for 60 minutes in an incubator. Hydrogen sulfide contained in 10 ml of the resulting headspace gas was measured by “[…] […] And then, the relative rate of inhibiting the production of hydrogen sulfide was calculated by 100 minus the relative value.

[3] = Inhibiting the production of amines from heated minced mackerel (headspace GC); conditions: minced mackerel with 5% saccharide solution; for Relative rate of inhibiting the production of dimethylamine / Relative rate of inhibiting the production of trimethylamine: headspace gas; for Relative rate of inhibiting the production of total amine: trimethylamine plus dimethylamine
Description: Five grams of minced mackerel, prepared by mincing commercialized mackerel without head part, internal organs and bone with a mincer to homogeneity, was placed in a 20-ml vial, and admixed with 5 ml of an aqueous solution containing on a dry solid basis 5% of “TREHA®”, a food grade hydrous α,α-trehalose commercialized by Hayashibara Biochemical laboratories, Inc., Okayama, Japan (purity 99.0% or more), sucrose (a commercialized granulated sugar), or a syrupy saccharide mixture containing saccharide derivatives of α,α-trehalose prepared in Example 1. The resulting vials were sealed with a butyl gum cap to prepare test samples. As a control, a vial containing 5 g of the minced mackerel and 5 ml of deionized water was sealed with a butyl gum cap for a control sample. These samples were heated in boiled water for 15 minutes, cooled in running water, and heated at 80° C. for five minutes. The resulting headspace gas was taken from each of the vials and allowed to measure the contents of amines, hydrogen sulfide and aldehydes.
Measurement of the content of amines was carried out by subjecting 2 ml of the headspace gas to analysis by GC-14B gas chromatography, a hydrogen flame ionizing detector commercialized by Shimazu Co., Ltd., Kyoto, Japan, with flowing helium gas as a carrier gas at a flow rate of 1 ml/minute, and using DB-5 capillary column, 30 m in length and 0.25 mm in internal diameter (df=0.25 μm, sprit rate 1/30), commercialized by J & W Company, with an increasing column temperature from 40° C. to 250° C. at a rate of 5° C./minute. The amount of total amine was calculated by totalizing the amount of trimethylamine and dimethylamine.
The values of the production of amines, hydrogen sulfide and aldehydes of each test sample were compared with the value of control defined as 100 to calculate the relative values thereof. And then, the relative rates of inhibiting the production of amines, hydrogen sulfide and aldehydes were respectively calculated by 100 minus each of the relative values.

[4] = Separately carried panel test of smell of cocoa samples; conditions: all of nine panels

Question: What does the source list for `OC[C@H]1O[C@H](O[C@H]2O[C@H](CO)[C@@H](O)[C@H](O)[C@H]2O)[C@H](O)[C@@H](O)[C@@H]1O` [α,α-Trehalose, α,α-trehalose]?
Answer: Relative rate of inhibiting the production of hydrogen sulfide [1]: 52; Relative rate of inhibiting the production of hydrogen sulfide [2]: 30; Relative rate of inhibiting the production of dimethylamine [3]: 44; Relative rate of inhibiting the production of trimethylamine [3]: 58; Relative rate of inhibiting the production of total amine [3]: 52; Smell of cocoa sample judged by panels [4]: favorite smell

Question: For `OC[C@H]1O[C@@](CO)(O[C@H]2O[C@H](CO)[C@@H](O)[C@H](O)[C@H]2O)[C@@H](O)[C@@H]1O` [Sucrose, sucrose], which “Relative rate of inhibiting the production of hydrogen sulfide” value [2] is on record?
Answer: 14

Question: What about the “Relative rate of inhibiting the production of dimethylamine” value [3] of the same compound?
Answer: −34

Question: And the “Relative rate of inhibiting the production of trimethylamine” value [3]?
Answer: 12

Question: What about the “Relative rate of inhibiting the production of total amine” value [3] of the same compound?
Answer: −8
